From patent publication US10870647B2, “Imidazopyridine derivative, method for preparing same, and pharmaceutical composition containing same as active ingredient for preventing or treating cancer” (DAEGU-GYEONGBUK MEDICAL INNOVATION FOUNDATION, priority 2016, dated 2020) come the findings set out here.

Structures are written as SMILES.

Common to all, as to assay: Kinase selectivity, scanMAX Kinase assay panel (DiscoverX), % control at 1 uM
Common to all, as to type: binding

Assay [1] deals with T1, scanMAX Kinase assay panel (Homo sapiens, UniProt Q9UEE5).
T1 construct: purchased DiscoverX
T1 sequence (Q9UEE5 1-414): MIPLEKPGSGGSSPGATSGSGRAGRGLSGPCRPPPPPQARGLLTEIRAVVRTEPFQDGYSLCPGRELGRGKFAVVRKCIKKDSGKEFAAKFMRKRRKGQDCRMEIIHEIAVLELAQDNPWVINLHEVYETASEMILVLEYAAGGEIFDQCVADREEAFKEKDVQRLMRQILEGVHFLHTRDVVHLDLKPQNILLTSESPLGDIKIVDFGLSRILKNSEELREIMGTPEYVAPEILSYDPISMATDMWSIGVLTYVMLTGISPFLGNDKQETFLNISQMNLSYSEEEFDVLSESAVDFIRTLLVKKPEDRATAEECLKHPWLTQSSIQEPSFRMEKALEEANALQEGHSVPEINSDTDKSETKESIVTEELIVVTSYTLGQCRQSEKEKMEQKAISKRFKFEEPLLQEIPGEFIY
The following applies: DRAK1; 1 uM; read-out: Percent Control (%). The procedure, abridged: (§1)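 Read-out is percent of control, derived from the signal with compound relative to positive and negative controls: (compound − positive)/(negative − positive) × 100. Each enzyme received test drug at 1 uM in DMSO, and values under 35% count as active.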

The target in assay [2] is T2, scanMAX Kinase assay panel (Homo sapiens, UniProt Q05397).
T2 construct: purchased DiscoverX
T2 sequence (Q05397 whole entry): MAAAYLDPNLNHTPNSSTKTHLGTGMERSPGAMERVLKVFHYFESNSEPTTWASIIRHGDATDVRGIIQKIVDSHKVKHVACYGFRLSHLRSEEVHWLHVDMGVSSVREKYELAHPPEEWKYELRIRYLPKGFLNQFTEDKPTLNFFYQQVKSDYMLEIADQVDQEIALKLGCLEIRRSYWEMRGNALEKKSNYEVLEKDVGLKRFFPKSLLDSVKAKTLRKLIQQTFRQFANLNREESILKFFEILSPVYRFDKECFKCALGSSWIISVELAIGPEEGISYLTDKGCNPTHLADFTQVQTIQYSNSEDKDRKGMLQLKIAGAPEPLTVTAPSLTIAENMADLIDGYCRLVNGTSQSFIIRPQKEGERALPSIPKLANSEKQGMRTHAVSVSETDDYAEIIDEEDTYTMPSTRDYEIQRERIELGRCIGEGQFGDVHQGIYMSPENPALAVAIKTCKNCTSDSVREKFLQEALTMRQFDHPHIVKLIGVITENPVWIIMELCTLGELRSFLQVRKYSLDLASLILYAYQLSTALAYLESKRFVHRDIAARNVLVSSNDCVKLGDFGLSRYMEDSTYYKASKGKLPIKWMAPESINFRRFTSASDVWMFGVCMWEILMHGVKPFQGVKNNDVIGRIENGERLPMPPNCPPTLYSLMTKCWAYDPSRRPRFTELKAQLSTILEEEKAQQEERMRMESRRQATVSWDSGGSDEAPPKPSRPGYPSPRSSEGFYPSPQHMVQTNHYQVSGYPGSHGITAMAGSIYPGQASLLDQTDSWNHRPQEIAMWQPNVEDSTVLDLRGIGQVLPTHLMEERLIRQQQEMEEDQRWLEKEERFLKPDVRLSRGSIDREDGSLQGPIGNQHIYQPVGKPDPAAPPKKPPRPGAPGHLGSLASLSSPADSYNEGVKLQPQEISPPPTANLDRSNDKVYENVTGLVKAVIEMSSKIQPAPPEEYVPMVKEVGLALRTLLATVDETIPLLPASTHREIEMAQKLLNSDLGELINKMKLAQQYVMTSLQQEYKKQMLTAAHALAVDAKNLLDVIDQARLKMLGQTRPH
The following applies: FAK; 1 uM; read-out: Percent Control (%). Put shortly:
as §1

Assay [3] deals with T3, scanMAX Kinase assay panel (Homo sapiens, UniProt Q96BR1).
T3 construct: purchased DiscoverX
T3 sequence (Q96BR1 1-496): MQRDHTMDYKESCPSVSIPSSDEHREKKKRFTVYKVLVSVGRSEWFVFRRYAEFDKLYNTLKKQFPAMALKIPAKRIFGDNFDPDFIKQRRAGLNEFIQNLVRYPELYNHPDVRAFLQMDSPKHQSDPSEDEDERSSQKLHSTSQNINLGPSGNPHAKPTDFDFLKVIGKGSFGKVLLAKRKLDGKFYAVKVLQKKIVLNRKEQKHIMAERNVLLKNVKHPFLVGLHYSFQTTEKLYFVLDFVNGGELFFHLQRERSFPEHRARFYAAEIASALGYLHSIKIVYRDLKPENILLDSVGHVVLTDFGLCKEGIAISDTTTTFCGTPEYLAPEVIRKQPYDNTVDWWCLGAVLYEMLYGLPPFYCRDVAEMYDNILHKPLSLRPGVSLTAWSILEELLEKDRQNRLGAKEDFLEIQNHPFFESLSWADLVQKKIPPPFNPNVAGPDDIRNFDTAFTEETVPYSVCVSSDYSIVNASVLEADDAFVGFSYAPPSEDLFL
The following applies: SGK3; 1 uM; read-out: Percent Control (%). Put shortly: as §1

In assay [4] the target is T4, scanMAX Kinase assay panel (Homo sapiens, UniProt O94806).
T4 construct: purchased DiscoverX
T4 sequence (O94806 1-890): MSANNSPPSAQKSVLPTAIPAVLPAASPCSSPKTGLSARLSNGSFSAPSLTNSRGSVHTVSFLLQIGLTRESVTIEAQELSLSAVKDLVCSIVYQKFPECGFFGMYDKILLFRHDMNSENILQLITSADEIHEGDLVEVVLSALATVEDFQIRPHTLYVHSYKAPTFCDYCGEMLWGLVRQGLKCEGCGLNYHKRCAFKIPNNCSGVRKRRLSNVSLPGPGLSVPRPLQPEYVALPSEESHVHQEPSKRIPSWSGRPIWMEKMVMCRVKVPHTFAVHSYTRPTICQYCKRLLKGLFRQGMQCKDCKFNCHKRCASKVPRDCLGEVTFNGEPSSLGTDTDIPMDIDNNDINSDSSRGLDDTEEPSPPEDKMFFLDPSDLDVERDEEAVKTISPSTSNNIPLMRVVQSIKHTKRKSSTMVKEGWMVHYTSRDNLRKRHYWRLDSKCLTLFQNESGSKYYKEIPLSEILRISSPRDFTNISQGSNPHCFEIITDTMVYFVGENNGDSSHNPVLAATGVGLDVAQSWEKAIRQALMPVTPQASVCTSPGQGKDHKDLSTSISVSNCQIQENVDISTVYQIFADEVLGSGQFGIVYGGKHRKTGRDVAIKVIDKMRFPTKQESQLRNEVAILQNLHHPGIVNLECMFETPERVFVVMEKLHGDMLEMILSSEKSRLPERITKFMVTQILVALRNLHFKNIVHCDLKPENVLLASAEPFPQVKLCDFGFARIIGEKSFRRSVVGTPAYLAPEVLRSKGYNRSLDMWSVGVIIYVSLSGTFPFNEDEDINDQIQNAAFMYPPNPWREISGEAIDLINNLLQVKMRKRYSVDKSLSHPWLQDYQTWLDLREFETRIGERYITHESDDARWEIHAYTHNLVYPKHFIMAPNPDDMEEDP
The following applies: PRKD3; 1 uM; read-out: Percent Control (%). Put shortly:
as §1

For assay [5], the target named is T5, scanMAX Kinase assay panel (Homo sapiens, UniProt Q8IW41).
T5 construct: purchased DiscoverX
T5 sequence (Q8IW41 1-473): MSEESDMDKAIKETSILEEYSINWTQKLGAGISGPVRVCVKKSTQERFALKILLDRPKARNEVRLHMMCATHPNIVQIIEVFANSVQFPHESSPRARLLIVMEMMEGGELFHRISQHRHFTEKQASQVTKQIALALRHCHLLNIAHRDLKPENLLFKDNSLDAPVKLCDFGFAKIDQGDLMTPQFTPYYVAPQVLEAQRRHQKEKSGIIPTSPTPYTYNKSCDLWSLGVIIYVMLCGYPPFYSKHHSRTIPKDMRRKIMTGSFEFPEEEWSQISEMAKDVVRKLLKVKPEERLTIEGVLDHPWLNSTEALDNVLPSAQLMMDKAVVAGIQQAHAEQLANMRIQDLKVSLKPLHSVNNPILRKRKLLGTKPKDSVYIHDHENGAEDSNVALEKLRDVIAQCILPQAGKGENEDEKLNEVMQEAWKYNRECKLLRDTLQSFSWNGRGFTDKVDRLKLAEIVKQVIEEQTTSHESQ
The following applies: MAPKAPK5; 1 uM; read-out: Percent Control (%). The procedure, abridged: as §1

The target in assay [6] is T6, scanMAX Kinase assay panel (Homo sapiens, UniProt P42336, E545A).
T6 construct: purchased DiscoverX
T6 sequence (P42336 whole entry E545A): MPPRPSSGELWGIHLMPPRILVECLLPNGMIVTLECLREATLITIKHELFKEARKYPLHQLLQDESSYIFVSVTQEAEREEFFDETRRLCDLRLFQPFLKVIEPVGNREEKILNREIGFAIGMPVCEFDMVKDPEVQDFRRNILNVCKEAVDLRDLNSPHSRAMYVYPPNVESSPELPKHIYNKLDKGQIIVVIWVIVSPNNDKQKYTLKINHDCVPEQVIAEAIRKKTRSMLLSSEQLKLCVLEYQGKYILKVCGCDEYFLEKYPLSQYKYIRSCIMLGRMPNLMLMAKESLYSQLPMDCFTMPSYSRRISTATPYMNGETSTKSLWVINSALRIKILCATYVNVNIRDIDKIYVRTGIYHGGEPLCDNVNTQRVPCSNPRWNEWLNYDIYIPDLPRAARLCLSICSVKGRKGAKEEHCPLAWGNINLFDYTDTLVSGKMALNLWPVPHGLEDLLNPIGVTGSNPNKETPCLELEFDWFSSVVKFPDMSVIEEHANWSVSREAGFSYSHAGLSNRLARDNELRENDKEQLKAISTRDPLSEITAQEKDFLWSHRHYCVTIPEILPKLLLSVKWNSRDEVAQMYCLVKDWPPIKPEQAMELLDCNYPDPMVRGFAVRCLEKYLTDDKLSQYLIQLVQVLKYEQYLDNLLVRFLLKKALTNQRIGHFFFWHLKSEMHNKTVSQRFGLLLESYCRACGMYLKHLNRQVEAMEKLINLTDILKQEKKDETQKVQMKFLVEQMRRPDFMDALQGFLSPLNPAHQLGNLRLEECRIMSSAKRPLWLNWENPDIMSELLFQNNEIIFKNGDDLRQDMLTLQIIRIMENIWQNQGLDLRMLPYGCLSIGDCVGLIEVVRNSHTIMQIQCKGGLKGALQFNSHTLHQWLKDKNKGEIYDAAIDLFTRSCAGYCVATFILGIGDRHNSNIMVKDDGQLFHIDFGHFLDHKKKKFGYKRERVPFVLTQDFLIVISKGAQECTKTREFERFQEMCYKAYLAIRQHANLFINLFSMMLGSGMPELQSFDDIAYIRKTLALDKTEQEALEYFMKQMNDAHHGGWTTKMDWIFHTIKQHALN
The following applies: PIK3CA (E545A); 1 uM; read-out: Percent Control (%). The procedure, abridged: as §1

The target of assay [7] is T7, scanMAX Kinase assay panel (Homo sapiens, UniProt P42336, Q546K).
T7 construct: purchased DiscoverX
T7 sequence (P42336 whole entry Q546K): as the sequence (P42336 whole entry E545A) above, with A545E, Q546K counted along it
The following applies: PIK3CA (Q546K); 1 uM; read-out: Percent Control (%). The procedure, abridged:
as §1

In the case of `Cc1ccc(C(=O)Nc2ccc(CN3CCN(C)CC3)c(C(F)(F)F)c2)cc1C#Cc1cnc2c(Nc3cnn(C)c3)cccn12` [Example 1, 4-methyl-3-((8-((1-methyl-1H-pyrazol-4-yl)amino)imidazo[1,2-a]pyridin-3-yl)ethynyl)-N-(4-((4-methylpiperazin-1-yl)methyl)-3-(trifluoromethyl)phenyl)benzamide], the remaining binding at 1 µM came to 98% in assay [1]; 39% in assay [2]; 97% in assay [3]; 43% in assay [4]; 100% in assay [5]; 87% in assay [6]. For the same compound, in assay [7], the remaining binding at 1 µM came out at 83%.

`Cc1cn(-c2cc(NC(=O)c3ccc(C)c(C#Cc4cnc5c(Nc6cnn(C)c6)cccn45)c3)cc(C(F)(F)F)c2)cn1` [Example 12, 4-methyl-N-(3-(4-methyl-1H-imidazol-1-yl)-5-(trifluoromethyl)phenyl)-3-((8-((1-methyl-1H-pyrazol-4-yl)amino)imidazo[1,2-a]pyridin-3-yl)ethynyl)benzamide]: the remaining binding at 1 µM in assay [1] is 100%; in assay [2], 10%; in assay [3], 100%; in assay [4] it was 96%; in assay [5] it was 100%; in assay [6], 79%. Moreover, the remaining binding at 1 µM in assay [7] was 100%.

Regarding `Cc1ccc(NC(=O)C2(C(=O)Nc3ccc(F)cc3)CC2)cc1C#Cc1cnc2c(Nc3cnn(C(C)C)c3)cccn12` [Example 78], the remaining binding at 1 µM in assay [1] is 100%; in assay [2] it was 96%; in assay [3], 78%; in assay [4] it was 88%; in assay [5] it was 100%; in assay [6], 100%. Further, in assay [7], the remaining binding at 1 µM was 89%.
